The text below walks through data of ChEMBL document CHEMBL3745707 (Bioorg Med Chem, 2016).

SMILES strings stand for the structures.

One assay has as its system K562. As to the kind of experiment: cells. To be noted: Homo sapiens, K562, 72 h. Format: functional, cell-based.
A further assay is described as follows: cells. Conditions: Homo sapiens, DU-145, 72 h. In kind it is functional, cell-based.

Consider `O=c1c(S(=O)(=O)c2ccc(F)cc2F)cc2cnc(Nc3ccc4[nH]ccc4c3)nc2n1C1CCCC1`, for which the IC50 in the assay with K562 and in “cells” was 5 µM throughout.
Consider `Cn1c(=O)c(S(=O)(=O)c2ccc(F)cc2)cc2cnc(Nc3ccc4occc4c3)nc21`, for which the IC50 in the assay with K562 and in the assay “cells” was 5 µM in each case.
For `Cc1ccc(S(=O)(=O)c2cc3cnc(Nc4cnc5c(c4)CC(=O)N5)nc3n(C)c2=O)cc1`, the IC50 in the assay on K562 and in “cells” was 15 µM throughout.
As to `Cn1ccc2cc(Nc3ncc4cc(S(=O)(=O)c5ccc(Cl)cc5Cl)c(=O)n(C)c4n3)ccc21`, the half-inhibitory concentration (IC50) in the assay with K562 and in “cells” was 0.75 µM each time.
Regarding `Cn1c(=O)c(S(=O)(=O)c2ccccc2)cc2cnc(Nc3ccc4cc[nH]c4c3)nc21`, the IC50 in the assay with K562 and in the assay “cells” was 10 µM in each case.
`Cn1c(=O)c(S(=O)(=O)c2ccc(F)cc2F)cc2cnc(Nc3ccc4sccc4c3)nc21`: the IC50 in the assay on K562 and in the assay “cells” was 0.5 µM in each case.
For the compound `Cc1ccc(S(=O)(=O)c2cc3cnc(Nc4ccc5ncccc5c4)nc3n(C)c2=O)cc1`, the IC50 in the assay with K562 and in “cells” was 10 µM each time.
On to `Cn1c(=O)c(S(=O)(=O)c2ccc(Cl)cc2Cl)cc2cnc(Nc3ccc4[nH]ccc4c3)nc21`, for which the IC50 in the assay on K562 and in “cells” was 1 µM throughout.
As to `Cc1ccc(S(=O)(=O)c2cc3cnc(Nc4cccc5[nH]ccc45)nc3n(C)c2=O)cc1`, the IC50 in the assay with K562 worked out at 5 µM; in the assay “cells”, 10 µM.
On the same counts, the results for `O=c1[nH]c2nc(Nc3ccc4[nH]ccc4c3)ncc2cc1S(=O)(=O)c1ccc(F)cc1F` are 15 µM and 15 µM.
With `Cn1c(=O)c(S(=O)(=O)Cc2ccc(F)cc2F)cc2cnc(Nc3ccc4[nH]ccc4c3)nc21`, the IC50 in the assay on K562 and in the assay “cells” was 1 µM each time.
With `Cn1c(=O)c(S(=O)(=O)c2ccc(Cl)cc2)cc2cnc(Nc3cnc4ccccc4c3)nc21`, the IC50 in the assay on K562 and in the assay “cells” was 15 µM each time.
For the compound `Cn1c(=O)c(S(=O)(=O)Cc2ccc(F)cc2)cc2cnc(Nc3ccc4[nH]ccc4c3)nc21`, the IC50 with K562 and in “cells” was 30 µM throughout.
As for `CN1CCN(c2ccc(Nc3ncc4cc(S(=O)(=O)c5ccc(F)cc5F)c(=O)n(C)c4n3)cc2)CC1`, the IC50 with K562 and in “cells” was 5 µM in each case.
As for `COc1ccc(Nc2ncc3cc(S(=O)(=O)c4ccc(C)cc4)c(=O)n(C)c3n2)cc1`, the 50% inhibitory concentration (IC50) was found to be 75 µM in the assay on K562 and 100 µM in the assay “cells”.
In the same order, the values of `Cn1c(=O)c(S(=O)(=O)c2ccc(F)cc2)cc2cnc(Nc3ccc4[nH]ncc4c3)nc21` are 10 µM and 5 µM.
In the same order, the values of `Cn1c(=O)c(S(=O)(=O)c2ccc(F)cc2)cc2cnc(Nc3ccc4cc[nH]c4c3)nc21` are 10 µM and 10 µM.
On the same counts, the results for `Cn1c(=O)c(C(=O)Nc2ccc(F)cc2F)cc2cnc(Nc3ccc4[nH]ccc4c3)nc21` are 5 µM and 5 µM.
Take `Cn1c(=O)c(S(=O)(=O)c2ccccc2)cc2cnc(Nc3ccc4ncccc4c3)nc21`: the values for the IC50 in the assay on K562 and in the assay “cells” were 100 µM and 50 µM, respectively.
On to `Cn1c(=O)c(S(=O)(=O)c2ccc(N)cc2F)cc2cnc(Nc3ccc4[nH]ccc4c3)nc21`, for which the IC50 is 1.5 µM in the assay with K562 and 8 µM in the assay “cells”.
On the same counts, the results for `CCn1c(=O)c(S(=O)(=O)c2ccc(F)cc2F)cc2cnc(Nc3ccc4[nH]ccc4c3)nc21` are 0.75 µM and 0.75 µM.
On the same counts, the results for `O=c1c(S(=O)(=O)c2ccc(F)cc2F)cc2cnc(Nc3ccc4[nH]ccc4c3)nc2n1CC1CCCC1` are 7 µM and 10 µM.
In the same order, the values of `CCCn1c(=O)c(S(=O)(=O)c2ccc(F)cc2F)cc2cnc(Nc3ccc4[nH]ccc4c3)nc21` are 1 µM and 1 µM.
Turning to `Cn1c(=O)c(S(=O)(=O)c2ccc(F)cc2F)cc2cnc(Nc3ccc4c(c3)C(=O)C(=O)N4)nc21`, the IC50 in the assay on K562 turned out to be 30 µM; in “cells”, 75 µM.
As to `Cc1ccc(S(=O)(=O)c2cc3cnc(Nc4ccc5[nH]ccc5c4)nc3n(C)c2=O)cc1`, the IC50 in the assay on K562 and in the assay “cells” was 0.75 µM throughout.
Regarding `O=c1c(S(=O)(=O)c2ccc(F)cc2F)cc2cnc(Nc3ccc4[nH]ccc4c3)nc2n1C1CC1`, the IC50 with K562 and in “cells” was 0.5 µM throughout.
`Cn1c(=O)c(S(=O)(=O)c2ccc(F)cc2F)cc2cnc(Nc3ccncn3)nc21`: the IC50 with K562 stood at 30 µM; in the assay “cells” it was 50 µM.
For the compound `COC(=O)Cn1c(=O)c(S(=O)(=O)c2ccc(F)cc2F)cc2cnc(Nc3ccc4[nH]ccc4c3)nc21`, the IC50 with K562 turned out to be 5 µM; in “cells”, 10 µM.
On to `Cn1c(=O)c(S(=O)(=O)c2ccc(F)cc2F)cc2cnc(Nc3ccc4occc4c3)nc21`, for which the IC50 in the assay on K562 and in the assay “cells” was 15 µM in each case.
Take `Cn1c(=O)c(S(=O)(=O)c2ccc(F)cc2F)cc2cnc(Nc3ccc4[nH]c(C(=O)O)cc4c3)nc21`: the IC50 with K562 and in “cells” was 10 µM throughout.
As for `COC(=O)Cn1ccc2cc(Nc3ncc4cc(S(=O)(=O)c5ccc(F)cc5F)c(=O)n(C)c4n3)ccc21`, the IC50 in the assay on K562 and in “cells” was 5 µM each time.
Consider `COc1ccc(Nc2ncc3cc(S(=O)(=O)c4ccc(Cl)cc4)c(=O)n(C)c3n2)cc1`, for which the figures for the IC50 in the assay on K562 and in “cells” were 15 µM and 30 µM, respectively.
In the case of `Cn1c(=O)c(S(=O)(=O)c2ccc(C(=O)O)cc2)cc2cnc(Nc3ccc4[nH]ccc4c3)nc21`, the IC50 in the assay with K562 was determined as 5 µM; in the assay “cells” it was 10 µM.
In the same order, the values of `Cn1c(=O)c(S(=O)(=O)c2ccc(Cl)cc2)cc2cnc(Nc3ccc(Cl)cc3)nc21` are 15 µM and 15 µM.
On the same counts, the results for `Cn1c(=O)c(S(=O)(=O)c2ccc(F)cc2F)cc2cnc(Nc3ccc4c(c3)CC(=O)N4)nc21` are 15 µM and 100 µM.
In the same order, the values of `Cn1c(=O)c(S(=O)(=O)c2ccc(F)cc2F)cc2cnc(Nc3ccc4cccc(O)c4n3)nc21` are 5 µM and 5 µM.
For the compound `Cn1c(=O)c(S(=O)(=O)c2ccc(Cl)cc2)cc2cnc(Nc3cnc4[nH]ccc4c3)nc21`, the IC50 in the assay with K562 and in the assay “cells” was 5 µM in each case.
Regarding `Cn1c(=O)c(S(=O)(=O)c2ccc(F)cc2F)cc2cnc(Nc3cnc4[nH]ccc4c3)nc21`, the IC50 with K562 and in “cells” was 0.75 µM throughout.
Turning to `Cn1c(=O)c(S(=O)(=O)c2ccc(F)cc2F)cc2cnc(Nc3ccc4[nH]ncc4c3)nc21`, the IC50 in the assay with K562 was 50 µM; in the assay “cells”, 30 µM.
On the same counts, the results for `Cn1c(=O)c(S(=O)(=O)c2ccc(F)cc2)cc2cnc(Nc3cnc4[nH]ccc4c3)nc21` are 0.75 µM and 0.5 µM.
Take `Cn1c(=O)c(S(=O)(=O)Nc2ccc(F)cc2)cc2cnc(Nc3ccc4[nH]ccc4c3)nc21`: the IC50 in the assay on K562 and in “cells” was 5 µM throughout.
Take `Cn1c(=O)c(S(=O)(=O)c2ccc(F)cc2F)cc2cnc(Nc3ccc4cc[nH]c4c3)nc21`: the IC50 in the assay with K562 and in the assay “cells” was 5 µM in each case.
`Cc1ccc(S(=O)(=O)c2cc3cnc(Nc4ccc5cc[nH]c5c4)nc3n(C)c2=O)cc1`: the IC50 in the assay with K562 and in the assay “cells” was 15 µM each time.
As for `Cn1ccc2cc(Nc3ncc4cc(S(=O)(=O)c5ccc(F)cc5F)c(=O)n(C)c4n3)ccc21`, the IC50 in the assay on K562 and in “cells” was 0.75 µM each time.

One may read the IC50 as the concentration that inhibits the measured activity by half. Read a low IC50 as greater potency in that assay.
